# Laboratory results: patent US20260274814A1, “THIENYL COMPOUNDS FOR THE TREATMENT OF A CENTRAL NERVOUS SYSTEM DISEASE OR DISORDER” (Coreterra Therapeutics, Inc., priority 2023, published 2026)
# Structures can show the parent of a compound that is named as a salt.
# Tested on: mice
# Experiment: Neuropharmacological Assay (SmartCube): automated behavioral signature of compound-treated mice compared with a database of reference drug classes
# Format: in vivo
# Conditions: for AG / AN / CE / HL / MS / PS / SH / UK / AD / AP / AX: probability that activity matches this class of agents, 3.0 mg/kg i.p., 15 min before test
# From the text: Neurosci. 2011 Sep. 9; 5: 103 (doi: 10.3389/fnins.2011.00103) (“Roberds”). As reported in Roberds, because psychiatric diseases generally result from disorders of cell-cell communication or circuitry, intact systems are useful in detecting improvement in disease-relevant endpoints. These endpoints are typically behavioral in nature, often requiring human observation and interpretation. To facilitate testing of multiple compounds for behavioral effects relevant to psychiatric disease, PsychoGenics, Inc. (Tarrytown, NY, “PGI”) developed SmartCube™ an automated system in which behaviors of compound-treated mice are captured by digital video and analyzed with computer algorithms. (D. Brunner et al. Drug Discov. Today 2002, 7:S107-S112). PGI Analytical Systems uses data from SmartCube™ to compare the behavioral signature of a test compound to a database of behavioral signatures obtained using a large set of diverse reference compounds. (The composition of the database as well as validation of the method is further described in Roberds). In this way, the neuropharmacological effects of a test compound can be predicted by similarity to major classes of compounds, such as antipsychotics, anxiolytics and antidepressants.
# The SmartCube™ system produces an activity signature indicating the probability that the activity of the test compound at the administered dose matches a given class of neuropharmacological agents. (See, e.g., Roberds, FIGS. 2 and 3). The test compound is simultaneously compared against multiple classes of agents; thus, a separate probability is generated for each behavioral effect measured (e.g., anxiolytic activity, analgesic activity, etc.). In table 2 below, these probabilities are reported for each behavioral effect measured as described in Table 1 below.
# Provided compounds were dissolved in a mixture of Pharmasolve™ (N-methyl-2-pyrrolidone), polyethylene glycol and propylene glycol, and were injected i.p. 15 min. before the behavioral test. For each compound, injections were administered at 3 different doses. For each behavioral effect measured, results for the 3.0 mg/kg dose are presented. The potency of many of the compounds in the table was also determined in the SmartCube™ system. Test compounds were routinely examined at dose levels of 0.3, 1, 3 and 10 mg per kg (mpk), although the dose range was increased or decreased, if necessary, to obtain a full dose response curve. A compound's minimal effective dose (MED) is a measure of the compound's potency. The MED was defined as the dose (in mpk) having 45% or more total activity in SmartCube. If only one dose was tested, that dose is shown in the MED column of Table 2 even though the dose is not known to be the MED.
# [1] = dose having 45% or more total activity in SmartCube, i.p., if only one dose was tested, that dose is shown, hydrochloride
Structure (SMILES),MED (minimal effective dose) [1],AG,AN,CE,HL,MS,PS,SH,UK,"AD (hydrochloride, 3 mg/kg)","AP (hydrochloride, 3 mg/kg)","AX (hydrochloride, 3 mg/kg)",AD,AP,"UK (hydrochloride, 3 mg/kg)","CE (hydrochloride, 3 mg/kg)","SH (hydrochloride, 3 mg/kg)","minimal effective dose (Mus musculus, ip, dose having 45% or more total activity in SmartCube, i.p., if only one dose was tested, that dose is shown, read-out: MED (minimal effective dose))","PS (hydrochloride, 3 mg/kg)"
"CNC1CCc2csc(F)c2C1 (single isomer, unassigned) [Compound 73, 3-fluoro-N-methyl-4,5,6,7-tetrahydro-2-benzothiophen-5-amine hydrochloride]",1 mpk,ND (^ <4%),ND (^ <4%),ND (^ <4%),ND (^ <4%),ND (^ <4%),ND (^ <4%),ND (^ <4%),ND (^ <4%),ND (^ <4%),ND (^ <4%),++++ (≥74%),,,,,,,
"CNC1CCc2csc(F)c2C1 (single isomer, unassigned) [Compound 74, 3-fluoro-N-methyl-4,5,6,7-tetrahydro-2-benzothiophen-5-amine hydrochloride]",3 mpk,ND (^ <4%),ND (^ <4%),ND (^ <4%),ND (^ <4%),ND (^ <4%),ND (^ <4%),ND (^ <4%),ND (^ <4%),+ (≥4%),++++ (≥74%),ND (^ <4%),,,,,,,
"CNC1CCc2c(csc2F)C1 (single isomer, unassigned) [Compound 75, 1-fluoro-N-methyl-4,5,6,7-tetrahydro-2-benzothiophen-5-amine hydrochloride]",1 mpk,ND (^ <4%),ND (^ <4%),ND (^ <4%),ND (^ <4%),ND (^ <4%),ND (^ <4%),ND (^ <4%),ND (^ <4%),,++++ (≥74%),ND (^ <4%),ND (^ <4%),,,,,,
"CNC1CCc2c(csc2F)C1 (single isomer, unassigned) [Compound 76, 1-fluoro-N-methyl-4,5,6,7-tetrahydro-2-benzothiophen-5-amine hydrochloride]",3 mpk,ND (^ <4%),ND (^ <4%),ND (^ <4%),ND (^ <4%),ND (^ <4%),ND (^ <4%),ND (^ <4%),ND (^ <4%),,++ (≥24%),++ (≥24%),ND (^ <4%),,,,,,
"CNC1CCc2c(F)sc(F)c2C1 (single isomer, unassigned) [Compound 77, 1,3-difluoro-N-methyl-4,5,6,7-tetrahydro-2-benzothiophen-5-amine hydrochloride]",0.3 mpk,ND (^ <4%),ND (^ <4%),ND (^ <4%),ND (^ <4%),ND (^ <4%),ND (^ <4%),ND (^ <4%),,++ (≥24%),,+ (≥4%),,++ (≥24%),ND (^ <4%),,,,
"CNC1CCc2c(F)sc(F)c2C1 (single isomer, unassigned) [Compound 78, 1,3-difluoro-N-methyl-4,5,6,7-tetrahydro-2-benzothiophen-5-amine hydrochloride]",1 mpk,ND (^ <4%),ND (^ <4%),ND (^ <4%),ND (^ <4%),ND (^ <4%),ND (^ <4%),ND (^ <4%),,ND (^ <4%),,++ (≥24%),,++ (≥24%),+ (≥4%),,,,
"CNC1CCc2cc(F)sc2C1 (single isomer, unassigned) [Compound 80, 2-fluoro-N-methyl-4,5,6,7-tetrahydrobenzothiophen-6-amine hydrochloride]",3 mpk,ND (^ <4%),ND (^ <4%),ND (^ <4%),ND (^ <4%),ND (^ <4%),ND (^ <4%),ND (^ <4%),ND (^ <4%),++ (≥24%),+ (≥4%),+ (≥4%),,,,,,,
"CNC1CCc2cc(F)sc2C1 (single isomer, unassigned) [Compound 81, 2-fluoro-N-methyl-4,5,6,7-tetrahydrobenzothiophen-6-amine hydrochloride]",1 mpk,ND (^ <4%),ND (^ <4%),ND (^ <4%),ND (^ <4%),ND (^ <4%),ND (^ <4%),ND (^ <4%),ND (^ <4%),ND (^ <4%),++++ (≥74%),ND (^ <4%),,,,,,,
"CNC1CCc2c(F)csc2C1 (single isomer, unassigned) [Compound 83, 3-fluoro-N-methyl-4,5,6,7-tetrahydrobenzothiophen-6-amine hydrochloride]",1 mpk,ND (^ <4%),ND (^ <4%),,ND (^ <4%),ND (^ <4%),ND (^ <4%),,ND (^ <4%),ND (^ <4%),+++ (≥49%),+ (≥4%),,,,+ (≥4%),ND (^ <4%),,
"CNC1CCc2c(F)csc2C1 (single isomer, unassigned) [Compound 84, 3-fluoro-N-methyl-4,5,6,7-tetrahydrobenzothiophen-6-amine hydrochloride]",0.1 mpk,ND (^ <4%),ND (^ <4%),,ND (^ <4%),ND (^ <4%),ND (^ <4%),,ND (^ <4%),+ (≥4%),ND (^ <4%),ND (^ <4%),,,,ND (^ <4%),+++ (≥49%),,
"CC1(N)CCc2ccsc2C1 (single isomer, unassigned) [Compound 111, 6-methyl-5,7-dihydro-4H-benzothiophen-6-amine hydrochloride]",,ND (^ <4%),ND (^ <4%),ND (^ <4%),ND (^ <4%),ND (^ <4%),,ND (^ <4%),ND (^ <4%),++ (≥24%),,++ (≥24%),,ND (^ <4%),,,,3 mg/kg,+ (≥4%)
"CC1(N)CCc2ccsc2C1 (single isomer, unassigned) [Compound 112, 6-methyl-5,7-dihydro-4H-benzothiophen-6-amine hydrochloride]",>3 mpk,ND (^ <4%),ND (^ <4%),ND (^ <4%),ND (^ <4%),ND (^ <4%),,ND (^ <4%),ND (^ <4%),+ (≥4%),,+ (≥4%),,ND (^ <4%),,,,,ND (^ <4%)
